pIC50: −log10 of the molar value.
Key:
thromboxane synthetase = target: T1, thromboxane synthetase (Homo sapiens, UniProt P24557); assay: inhibition of thromboxane (TX) formation in thrombin stimulated washed platelets, TXB2 specific radioimmunoassay; type: cell-based; conditions: for pIC50: 0,6 IU/ml thrombin stimulated human washed platelets, TXB2 specific radioimmunoassay; for inhibition of TXB2-formation: concentration not given; for specificity as inhibitor of thromboxane synthetase: in vitro-study, inhibition of TX formation on platelet aggregation
T1 construct: thrombin stimulated human washed platelets; endogenous in cells; host or cells: human washed platelets
T1 sequence (P24557 1-533): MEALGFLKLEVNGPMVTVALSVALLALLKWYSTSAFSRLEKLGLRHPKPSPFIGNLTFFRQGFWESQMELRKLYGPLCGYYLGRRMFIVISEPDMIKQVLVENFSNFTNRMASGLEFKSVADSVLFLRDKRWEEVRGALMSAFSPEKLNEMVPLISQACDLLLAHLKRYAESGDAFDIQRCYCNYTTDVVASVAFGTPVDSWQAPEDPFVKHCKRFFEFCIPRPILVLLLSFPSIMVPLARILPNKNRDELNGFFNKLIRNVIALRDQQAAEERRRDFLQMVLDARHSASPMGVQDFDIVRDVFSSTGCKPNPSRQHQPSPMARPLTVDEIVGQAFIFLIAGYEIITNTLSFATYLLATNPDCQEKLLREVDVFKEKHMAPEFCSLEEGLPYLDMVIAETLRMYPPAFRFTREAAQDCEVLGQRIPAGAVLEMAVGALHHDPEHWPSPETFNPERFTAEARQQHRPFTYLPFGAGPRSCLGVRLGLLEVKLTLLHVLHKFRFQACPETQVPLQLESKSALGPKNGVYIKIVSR
Experimental: (§1) In 0,6 IU/ml thrombin stimulated human washed platelets the IC50 (μM) for inhibition of TX formation (measured by TXB2 specific radioimmunoassay) was 1,1 for LG 82-4-00 and 1,3 for LG 82-4-01. The two substances inhibited TXB2 -formation and 1-2 μg/ml collagen induced platelet aggregation by more than 95%.

platelet aggregation [1] = assay: collagen induced platelet aggregation; type: cell-based, human; conditions: 1-2 μg/ml collagen; concentration not given
Experimental: as §1

platelet aggregation [2] = assay: proaggregatory activity and primary wave ADP aggregation; type: cell-based
Description: Neither LG 82-4-00 nor LG 82-4-01 had vasoconstrictor, proaggregatory or antagonistic activity or affected primary wave ADP aggregation (P >0,05).

Row | pIC50 (thromboxane synthetase) | inhibition of TXB2-formation (thromboxane synthetase) | Structure (SMILES) | specificity as inhibitor of thromboxane synthetase (thromboxane synthetase) | inhibition of collagen induced platelet aggregation (platelet aggregation [1]) | proaggregatory activity (platelet aggregation [2])
1 | 5.96 | more than 95% | Cl.O=C(O)c1ccc(OCCn2ccnc2)s1 [LG 82-4-00, 5-[2-(1-Imidazolyl)-1-ethoxy]thiophene-2-carboxylic acid hydrochloride] | specific inhibitors of thromboxane synthetase | more than 95% | Neither
2 | 5.89 | more than 95% | Cl.O=C(O)c1cc(Cl)c(OCCn2ccnc2)s1 [LG 82-4-01, 4-Chloro-5-[2-(1-imidazolyl)-1-ethoxy]-thiophene-2-carboxylic acid hydrochloride] | specific inhibitors of thromboxane synthetase | more than 95% | Neither
